In US20210261690A9, “Method of Generating Anti-Linaclotide Antibodies and Uses Thereof” (Ironwood Pharmaceuticals, Inc., priority 2018, published 2021):
“And” between values parts separate entries of the source, which are not always exact repeats. Equal entries are not always repeated. Bridge positions count the residues as written; N and C are the ends. Ends that are not written are not given here. Peptide text beside a SMILES is read from it.

Key:
[1] = system: positive control antibody produced by protocol 1; assay: Bridging cross-reactivity assay with fluorescein-modified detection peptides; assay type: binding, rabbit; details: 500 ng/mL antibody, 312 ng/mL SEQ ID NO: 8, 312 and 625 ng/mL fluorescein-modified peptides
Text: A bridging cross-reactivity assay similar to the screening assay (Example 6) was set up to detect direct binding of the positive control antibody to both linaclotide and uroguanylin or guanylin. For use as detection peptides, uroguanylin and guanylin were synthesized with fluorescein coupled to their N terminus (SEQ ID NO: 10 and SEQ ID NO: 12, respectively; Table 4). This cross-reactivity assay used SEQ ID NO: 8 (Table 4) as the capture peptide, just as in the screening assay, and either SEQ ID NO: 10 (for uroguanylin) or SEQ ID NO: 12 (for guanylin) as the detection peptide. Sheep anti-fluorescein HRP-conjugated antibody was used for detection of positive control antibodies. The antibody must directly bind both the linaclotide-capture peptide and uroguanylin or guanylin to generate a signal in the assay (FIG. 21). A fluorescein-modified PGC1a peptide was purchased for use as a negative control for cross-reactivity.
This cross-reactivity assay was performed using 500 ng/mL of positive control antibody produced by protocol 1, 312 ng/mL of SEQ ID NO: 8, and 2 concentrations (312 and 625 ng/mL) of fluorescein-modified peptides for each set of reactions. […] Positive control antibody is excluded from blank incubations.

[2] = system: antibody obtained from protocol 2; assay: Confirmatory assay (ELISA bridging assay with linaclotide competition); assay type: binding, rabbit; details: 500 ng/mL antibody from protocol 2, 300 ng/mL SEQ ID NO: 8, 312 ng/mL SEQ ID NO: 9
Text: The initial bridging assay was developed using a biotinylated form of linaclotide, SEQ ID NO: 8, for antibody capture, and the linaclotide-tracer peptide, SEQ ID NO: 9, for detection on a streptavidin plate. […] A sheep anti-fluorescein antibody conjugated to HRP was used for detection of SEQ ID NO: 9 to enhance the signal over direct detection of the fluorescein moiety by ultraviolet-visible spectroscopy (UV/Vis). In this initial assay, the capture peptide (biotin-linaclotide), detection peptide (fluorescein-linaclotide), and anti-linaclotide antibodies were first incubated overnight in solution to allow complexes to form. These complexes were captured on a streptavidin plate, which was then washed. Bound complexes were detected with an HRP-conjugated anti-fluorescein antibody followed by addition of the HRP substrate and colorimetric detection.
The confirmatory assay was developed as a variation of the ELISA-based bridging assay (Example 6) with competition using fluorescein for detection. The peptide antibody incubation mixture was spiked with native linaclotide, and the concentrations of positive control antibody, capture peptide, and detection peptide were kept constant.
A binding curve was generated using Prism® v.

[3] = Phase 2b studies for CC, four-week treatment period; cited from earlier work
[4] = system: anti-linaclotide antibodies obtained using protocol 2; assay: Cross-reactivity competition assay; assay type: binding, rabbit; details: 6.3 μg/mL peptide, 500 ng/mL antibody from protocol 2
Text: The cross-reactivity assay to test for cross-reactivity to the endogenous hormones, uroguanylin and guanylin, is a competition assay similar to the confirmatory assay (Example 7).
To determine if the positive control antibody produced by protocol 2 could bind either of the endogenous hormones, uroguanylin or guanylin peptides were used in place of linaclotide in a competition assay similar to the confirmatory assay described in Example 7. During development, the IC80 concentration for linaclotide, 6.3 μg/mL, was chosen as a relevant test concentration for cross-reactivity because it is on the higher end of the linear range of the inhibition curve (FIG. 18). This concentration (6.3 μg/mL) is approximately 10,000 times the systemic circulating levels of uroguanylin and guanylin. A non-related peptide, C-type natriuretic peptide (CNP), was added as a negative control in this assay.

[5] = after oral administration at therapeutic dose levels; cited from earlier work
[6] = system: positive control antibody; assay: Direct-binding ELISA of linaclotide-tracer peptide; parameters: species or system rabbit; details: anti-fluorescein antibody conjugated to HRP for detection
Text: Anti-fluorescein antibody conjugated to HRP was used to detect the linaclotide-tracer peptide, SEQ ID NO: 9. The signal increased with increasing antibody concentration.

[7] = system: antibody produced by protocol 1; assay: Direct-binding ELISA for cross-reactivity with immobilized biotinylated peptides; parameters: species or system rabbit
Experimental: To further characterize the interactions between the positive control antibody and the cross-reacting peptides, a direct-binding ELISA experiment was conducted in which varying concentrations of biotinylated peptides (linaclotide, uroguanylin, and negative control parathyroid hormone [PTH]) were immobilized on the plate for antibody capture. The assay was performed using either sera from protocol 1 or anti-uroguanylin serum (Abcam ab52806) in ELISA buffer; no adequate control antibody to guanylin is available. HRP-anti-rabbit secondary antibody was used for the detection of anti-linaclotide antibodies, and HRP-anti-mouse secondary antibody was used for the detection of anti-uroguanylin antibodies from the antiserum. […] The signal for uroguanylin binding was approximately 15% of the signal obtained for linaclotide under the same conditions.

[8] = system: rabbit anti-linaclotide antibody; assay: Electrochemiluminescence bridging assay, specificity (cross-reactivity); assay type: binding; details: individual human serum
Experimental: The electrochemiluminescence assay was used as a validation of a method to detect anti-linaclotide antibodies in human serum using a MSD electrochemiluminescence protocol. Low positive control (LPC), high positive control (HPC), relative light units (RLU), coefficient of variation (CV) and confirmation cut points were determined using MSD procedures. The positive control antibodies used were the antibodies harvested from protocol 2.
The assay is an immunogenicity bridging-based assay developed on MesoScale Discovery Electrochemiluminescence (ECL) technology. It is performed by first mixing a biotinylated-linaclotide analog, a sulfotag-labeled linaclotide analog, and the clinical sample together in a multi-well plate. The presence of anti-linaclotide antibodies in the clinical sample forms an immune complex with a biotin-labeled linaclotide analog and a sulfotag-labeled linaclotide analog. The immune complex is subsequently captured on a streptavidin coated MesoScale Discovery multi-well plate followed by a wash step. The captured immune complex is then detected by electrochemiluminescence generated by the sulfotag-labeled linaclotide portion of the immune complex. The signal generated by the sample is then compared to a pre-determined screening cut point to determine if the sample is positive for the presence of anti-linaclotide antibodies. Samples that are determined to be positive are subjected to a second immunogenicity confirmation assay which is performed by mixing a biotinylated-linaclotide analog, a sulfotag-labeled linaclotide analog, the clinical sample, and unlabeled linaclotide together in a multi-well plate. The immune complex is subsequently captured on a streptavidin-coated MesoScale Discovery multi-well plate followed by a wash step. The captured immune complex is then detected by electrochemiluminescence generated by the sulfotag-labeled linaclotide portion of the immune complex. The signal generated by the sample is then compared to a pre-determined confirmation assay cut point to determine if the sample is positive for the presence of anti-linaclotide antibodies. Samples that are confirmed positive by this assay are subsequently tested at different dilutions to determine the titer of the anti-linaclotide antibody.
Specificity (cross-reactivity) of the assay was assessed by spiking ten drug-naive individual human serum samples containing rabbit anti-linaclotide antibody at the HPC (500 ng/mL) and the screening LPC (44 ng/mL) levels with 10 μg/mL Uroguanylin or Guanylin. At the same time, ten replicates of the antibody-spiked samples (without Uroguanylin or Guanylin) at each level were included to establish the % Inhibition. The following formula was used to calculate the % Inhibition for each individual:
% Inhibition=[(1−(Drug with Antibody/Antibody alone)]*100

C[C@@H]1NC(=O)[C@@H]2CCCN2C(=O)[C@H](CC(N)=O)NC(=O)[C@@H]2CSSC[C@H](N)C(=O)N[C@H]3CSSC[C@H](NC1=O)C(=O)N[C@@H]([C@@H](C)O)C(=O)NCC(=O)N[C@H](C(=O)N[C@@H](Cc1ccc(O)cc1)C(=O)O)CSSC[C@H](NC(=O)[C@H](Cc1ccc(O)cc1)NC(=O)[C@H](CCC(=O)O)NC3=O)C(=O)N2 [Linaclotide, C1C2EYC3C1NPAC2TGC3Y] (H-CCEYCCNPACTGCY-OH; disulfide 1-6, 2-10, 5-13)
signal in the direct-binding assay for cross-reactivity [1]: Only linaclotide was able to generate a positive signal
50% inhibitory concentration (IC50) [2]: 1.4 µg/mL
80% inhibitory concentration (IC80) [2]: 6.3 µg/mL
effect on constipation, abdominal discomfort and bloating [3]: reduced constipation, abdominal discomfort, and bloating
inhibition of binding [4]: approximately 60%
levels seen systemically [5]: no detectable levels

Fluorescein-C1 C2 EYC3 C1 NPAC2 TGC3 Y [SEQ ID NO: 9]
binding to the positive control antibody [6]: confirmed

NNDC1 ELC2 VAVAC1 TGC2 L (NNDCELCVAVACTGCL; disulfide 4-12, 7-15; not fully specified (N-terminus); printed as NNDC1 ELC2 VAVAC1 TGC2 L) [Uroguanylin, endogenous hormone]
signal for binding relative to the signal obtained for linaclotide ([7]; 60 ng/mL antibody of protocol 1): approximately 15%
binding of antibody produced by protocol 1 ([7]; 60 ng/mL antibody of protocol 1, varying concentrations of biotinylated peptide, FIG. 20): binds to uroguanylin in a concentration-dependent manner
recognition by antibodies produced by protocol 2 (inhibition versus negative control CNP) [4]: not recognized by antibodies produced by protocol 2
Percent Inhibition ([8]; 10 μg/mL Uroguanylin, antibody at the HPC (500 ng/mL)): 10.7% and 18.6% and 9.5% and −11.3% and 10.1% and −11.7% and −1.3% and −0.5% and 0.6% and 1.9%
Percent Inhibition ([8]; 10 μg/mL Uroguanylin, antibody at the Screening LPC (44.0 ng/mL)): −6.6% and 18.4% and 15.7% and 4.8% and −3.8% and −1.5% and 3.2% and 5.1% and −0.5% and −4.1%
Antibody and 10 μg/mL Uroguanylin (signal) ([8]; antibody at the HPC (500 ng/mL)): 147 and 151 and 145 and 164 and 162 and 185 and 180 (2×) and 169 and 157
Antibody and 10 μg/mL Uroguanylin (signal) ([8]; antibody at the Screening LPC (44.0 ng/mL)): 59 (2×) and 39 and 44 and 52 (4×) and 51 and 53

PGTC1 EIC2 AYAAC1 TGC2 (PGTCEICAYAACTGC; disulfide 4-12, 7-15; not fully specified (N-terminus); printed as PGTC1 EIC2 AYAAC1 TGC2) [Guanylin, endogenous hormone]
recognition by antibodies produced by protocol 2 (inhibition versus negative control CNP) [4]: not recognized by antibodies produced by protocol 2
Antibody and 10 μg/mL Uroguanylin (signal) ([8]; Table 7 (Guanylin), antibody at the HPC (500 ng/mL)): 225 and 199 and 179 and 177 and 174 and 181 and 155 and 135 and 130 and 239
Antibody and 10 μg/mL Uroguanylin (signal) ([8]; Table 7 (Guanylin), antibody at the Screening LPC (44.0 ng/mL)): 71 and 57 (2×) and 55 (2×) and 54 and 53 (2×) and 63 and 51
Percent Inhibition ([8]; Table 7 (Guanylin, 10 μg/mL), antibody at the HPC (500 ng/mL)): 0.0% and 3.2% and 7.6% and −3.4% and 2.2% and −7.8% and −3.9% and −1.9% and −7.1% and −4.5%
Percent Inhibition ([8]; Table 7 (Guanylin, 10 μg/mL), antibody at the Screening LPC (44.0 ng/mL)): −7.1% and 8.2% and 3.4% and 12.5% and 11.0% and 7.4% and 6.4% and 3.6% and 0.1% and 7.0%
